Data set [1] has as its target T1, porcine lipase (Sus scrofa, UniProt P00591).
T1 sequence (P00591 1-450): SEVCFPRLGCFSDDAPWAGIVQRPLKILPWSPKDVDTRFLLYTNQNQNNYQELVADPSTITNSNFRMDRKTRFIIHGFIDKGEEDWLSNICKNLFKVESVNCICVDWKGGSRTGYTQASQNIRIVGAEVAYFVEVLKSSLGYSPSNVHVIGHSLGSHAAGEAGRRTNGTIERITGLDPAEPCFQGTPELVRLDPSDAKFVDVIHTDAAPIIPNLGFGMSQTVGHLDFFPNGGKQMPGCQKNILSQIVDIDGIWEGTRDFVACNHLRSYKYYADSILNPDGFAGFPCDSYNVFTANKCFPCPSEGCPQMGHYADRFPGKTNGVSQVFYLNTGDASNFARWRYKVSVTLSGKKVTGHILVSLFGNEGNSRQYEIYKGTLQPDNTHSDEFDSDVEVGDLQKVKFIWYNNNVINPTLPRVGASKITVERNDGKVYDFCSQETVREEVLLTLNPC
The experiment in a line: Hydrolysis by pancreatic lipase, organic solution assay. Type of data set: in vitro ADME. The settings on record: 30° C., tamyl alcohol, Bis-Tris propane buffer pH 7.8, 300 mg fat, unit assumed. The procedure:
The digestibility of the wax esters derived from long chain and medium chain combinations (III and IV) of the present invention were done to compare with triolein and wax esters derived from long chain acids and long chain alcohols. The in-vitro assays were done using two emulsion systems as in the following procedure. Each digest was carried out with 300 mg of the fat/fat substitute, 9 ml of the ^tamyl alcohol, 0.5 ml of Bis-Tris propane buffer (10 mM, pH 7.8) and 0.5 ml of porcine lipase (20 mg/mi). The reaction was incubated at 30° C. and the reaction stopped by adding 1 ml aliquots to 3 ml of isopropanol/heptane/sulfuric acid (40/10/1). The product was extracted with heptane and analyzed by GC and GC-MS at 360° C.

For data set [2], the target named is T1, porcine lipase. The experiment in a line: Hydrolysis by pancreatic lipase, aqueous emulsion assay. It is filed as in vitro ADME. The conditions noted are these: 30° C., Bis-Tris propane buffer pH 7.8, HMPC, sodium cholate, 300 mg fat, unit assumed. The procedure: The digestibility of the wax esters derived from long chain and medium chain combinations (III and IV) of the present invention were done to compare with triolein and wax esters derived from long chain acids and long chain alcohols. The in-vitro assays were done using two emulsion systems as in the following procedure. A mixture of 300 mg of the fat/fat substitute, 4 ml of Bis-Tris propane buffer (10 mM, pH 7.8), 5 ml of hydroxyproylmethylcellulose (HMPC, […]), 0.5 ml of sodium cholate (0.1 M) were sonicated to disperse the fats and incubated at 30° C. Porcine lipase (0.5 ml, 20 mg/ml) was added. The analysis of the reaction was carried out as in the above organic solution assay.

With `CCCCCCCC/C=C\CCCCCCCC(=O)OCC(COC(=O)CCCCCCC/C=C\CCCCCCCC)OC(=O)CCCCCCC/C=C\CCCCCCCC` [Triolein, reference compound], the Hydrolysis by pancreatic lipase, Organic Solution Assay 24 hr at porcine lipase [1] came out at 69.2%. In addition, the Hydrolysis by pancreatic lipase, Aqueous Emulsion Assay 24 hr on porcine lipase [2] amounted to 93.3%.

On to `CCCCCCCCCCCCCCCCCCCCOC(=O)CCCCCCC` [Arachidyl caprylate], for which the Hydrolysis by pancreatic lipase, Organic Solution Assay 24 hr on porcine lipase [1] came to 7.6%. Also, the Hydrolysis by pancreatic lipase, Aqueous Emulsion Assay 24 hr at porcine lipase [2] was found to be 14.7%.

On to `CCCCCCCCCCCCCCCCCCCCOC(=O)CCCCC` [Arachidyl caproate], for which the Hydrolysis by pancreatic lipase, Organic Solution Assay 24 hr at porcine lipase [1] was found to be 2.2%. The Hydrolysis by pancreatic lipase, Aqueous Emulsion Assay 24 hr on porcine lipase [2] came to 4%.

For `CCCCCCCCCCCCCCCCCCCC(=O)OCCCCCC` [Hexyl arachidate], on porcine lipase [1], the Hydrolysis by pancreatic lipase, Organic Solution Assay 24 hr was found to be 5.4%. For the same compound, the Hydrolysis by pancreatic lipase, Aqueous Emulsion Assay 24 hr at porcine lipase [2] is 11.7%.

For the origin of these results see patent US20020012738A1, “Low calorie fat compositions” (priority 2000, published 2002).
